Experimental data: US20060269601A1, “Oral modified release formulations containing 8-prenylnaringenin for continuous estrogen support” (priority 2005, published 2006)

Experiments:
[1] = Clinical Phase Ia study: drug serum levels after single oral dose of 8-prenylnaringenin; assay type: in vivo, human (postmenopausal women)
Description: The pharmacokinetic profile of 8-prenylnaringenin is characterized by a complete oral absorption, a low degree of metabolization (less than 60% of dose) and a high pre-systemic elimination (first-liver-pass excretion; about 55% of dose). This high and unexpected pre-systemic elimination leads to an accumulation of substantial amounts in the bile fluid from which they are secreted into the duodenum when gastric signaling occurs with food intake. The 8-prenylnaringenin is then absorbed again and enters systemic circulation. Data were taken from the clinical Phase Ia study and represent two volunteers in the lowest dose group (50 mg 8-prenylnaringenin).
Taking the total area under the curve as a measure of 8-prenylnaringenin systemic availability, the percentage of the area under the second peak (generated by reabsorption of the pre-systemically eliminated and then biliary secreted amounts) can be used to estimate those portions of the doses that undergo pre-systemic elimination after oral dosing. The average figure was 54±20% for the six women in the study.
Re-increases in drug serum levels show reabsorption of dose parts collected in the bile fluid and subsequently secreted triggered by intake of the midday meal.
8-prenylnaringenin is analyzed by a specifically developed radio-immunoassay. A 4′-O hapten ({4-[5,7-Dihydroxy-8-(3-methyl-but-2-enyl)-4-oxo-chroman-2-yl]-phenoxy}-acetic acid) was synthesized starting from racemic naringenin and coupled to cationized bovine serum albumin (cBSA). This antigen was mixed with Freund's adjuvants and injected into rabbits. The antiserum resulting after several boosters was isolated as an IgG fraction and used in a final dilution of 1:100.000. A tritiated tracer was synthesized by preparation of the 3′,5′-dibromo derivative of 8-prenylnaringenin, again starting from racemic naringenin. Both bromine atoms were exchanged to ^3H in a final, palladium-catalyzed step leading to the tritiated tracer of a specific radioactivity of 2.22 GBq/mg.
Biological matrices, i.e. blood plasma, blood serum, or urine, are either directly extracted with tert-butyl methyl ether (tert-BME) or after enzymatic de-conjugation by means of glucuronidase/arylsulfatase (Helix pomatia). Organic layers are separated, evaporated and the residues taken up in assay buffer. Extract residues or dilutions of standard 8-prenylnaringenin solutions are then mixed with antiserum and tracer and kept at 4° C. overnight. Dextran-coated charcoal is added to separate bound and free 8-prenylnaringenin and bound radioactivity is quantified with a liquid scintillation counter after addition of a scintillation cocktail.

[2] = pH-dependent solubility of 8-prenylnaringenin; assay type: physicochemical; details: dependence on pH
Description: The solid oral modified release formulations of this invention show a pH-independent drug release in vitro. This is important as the pH varies considerably in the gastro-intestinal tract and continuous release should be achieved independent of the pH. However, the solubility of 8-prenylnaringenin is pH-dependent. […] The low acid solubility property of 8-prenylnaringenin results in vitro in slow drug dissolution at pH 1, whereas the dissolution is fast at higher pH-values such as pH 6.8. The resulting dissolution profiles are different at different pH-values. This problem is solved by the solid oral modified release formulation of this invention.

[3] = In vitro release/dissolution from mini-matrix tablets, basket apparatus USP XXV; assay type: physicochemical
Experimental: Measurement of the active ingredient release from mini-matrix tablets is carried out according to a one-compartment method (basket apparatus), as described in U.S. Pharmacopeia USP XXV. The release of 8-prenylnaringenin was examined in phosphate buffer solution, pH 6.8 (composition, see USP XXV) or in 0.1 N HCl. Ten percent (w/w) hydroxypropyl-β-cyclodextrine were added in order to achieve sink conditions and primarily control the drug release by the dosage form.

uterus = details: compared with estradiol at equivalent bone protective doses; cited from earlier work

percentage of the area under the second peak of total area under the curve (portion of dose undergoing pre-systemic elimination) ([1]; average for the six women in the study, after oral dosing): 54±20%
degree of metabolization ([1]; oral dosing, human): less than 60 % of dose
oral absorption ([1]; oral dosing, human): complete
pre-systemic elimination (first-liver-pass excretion) ([1]; oral dosing, human): about 55 % of dose
solubility [2]: pH-dependent
drug dissolution in vitro ([3]; higher pH-values such as pH 6.8): fast
drug dissolution in vitro ([3]; pH 1): slow
SMILES: CC(C)=CCc1c(O)cc(O)c2c1OC(c1ccc(O)cc1)CC2=O (centres unmarked) [8-prenylnaringenin, 5,7-Dihydroxy-2-(4-hydroxyphenyl)-8-(3-methylbut-2-enyl)-chroman-4-on]
activity on the uterus (uterus): much lower activity on the uterus than estradiol
